Measurements reported in ChEMBL document CHEMBL1149529 (Bioorg Med Chem Lett, 2007).

What was measured:
[1] = Oral bioavailability in rat at 15 mg/kg, po; assay type: ADME, organism-based; conditions: in vivo
[2] = Clearance in rat at 5 mg/kg, iv; assay type: ADME, organism-based; set-up: dose 5 mg/kg, route intravenous; conditions: in vivo

| Compound | bioavailability [1] [%] | clearance [2] [L/h/kg] |
| --- | --- | --- |
| CN(CC1=CC2C(=O)C(C(=O)NCc3ccc(Cl)cc3)=CN(C)C2S1)C[C@@H](O)c1ccccn1 (stereo partly specified) | 45 | 2.8 |
| Cc1c(CN(C)C[C@@H](O)c2ccccn2)sc2c(=O)c(C(=O)NCc3ccc(Cl)cc3)cn(C)c12 | 30 | 1.4 |
| Cc1c(CN(C)C[C@@H](O)c2ncccn2)sc2c(=O)c(C(=O)NCc3ccc(F)cc3)cn(C)c12 | 29 | 2.1 |
